Some test systems named below: CCRF-CEM leukemia; LOX IMVI melanoma; DU-145 prostate; NCI-H460 lung; HT29 colon; NCI-H226 lung; SK-MEL-5 melanoma; MDA-MB-231 breast; SF-539 CNS; A549 NSCLC; OVCAR-8 ovarian; K-562 leukemia; TK-10 renal; SR leukemia; HCC-2998 colon; HL-60(TB) leukemia; 786-0 renal; HS 578T breast; MOLT-4 leukemia; T-47D breast.
Common to all, as to experiment: NCI anticancer screen, dose series, 48 h

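Following 48 hours of exposure in 96-well plates, responses at five concentrations were used to interpolate endpoints linearly. The concentration for full growth arrest is given as TGI.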 A value given as a limit tells only on which side of the number the result lay.

Consider `Cn1c(=O)cc(NNc2ccc(Br)cc2)[nH]c1=O`, for which the TGI with CCRF-CEM leukemia is more than 100 µM; with LOX IMVI melanoma, 4.13 µM; in the assay with DU-145 prostate, 19.3 µM; with NCI-H460 lung it was 19.3 µM; in the assay with HT29 colon, 12.2 µM; in the assay with NCI-H226 lung, 39.1 µM. Also, the TGI in the assay with SK-MEL-5 melanoma was 30.2 µM; in the assay on MDA-MB-231 breast it was 27.7 µM; with SF-539 CNS, 8.14 µM; with A549 NSCLC it was 29.8 µM; with OVCAR-8 ovarian, 41.4 µM; with K-562 leukemia, more than 100 µM. In addition, the TGI in the assay on TK-10 renal is 34.9 µM; in the assay on SR leukemia, more than 100 µM; in the assay on HCC-2998 colon it was 13.9 µM; in the assay on HL-60(TB) leukemia, 7.14 µM; with 786-0 renal it was 21.4 µM; in the assay on HS 578T breast, 9.34 µM.

Turning to `COc1cc2c(c(N)c1OC)C(=O)/C(=C/c1cc(C)c(O)c(C)c1)C2`, the TGI in the assay on CCRF-CEM leukemia was 11.7 µM; with LOX IMVI melanoma, more than 100 µM; in the assay with DU-145 prostate, 16.9 µM; in the assay on NCI-H460 lung, more than 57.8 µM; in the assay with HT29 colon, more than 100 µM; in the assay on NCI-H226 lung, more than 100 µM. The TGI in the assay on MOLT-4 leukemia is more than 100 µM; in the assay on SK-MEL-5 melanoma it was more than 32.7 µM; in the assay on MDA-MB-231 breast, more than 100 µM; with A549 NSCLC, more than 100 µM; in the assay on OVCAR-8 ovarian it was more than 100 µM; with TK-10 renal, more than 100 µM. In addition, the TGI with T-47D breast, in the assay with SR leukemia, with HCC-2998 colon and with 786-0 renal was more than 100 µM in each case.

For `CCN(CC)CCCC(C)NC(=O)c1cc(-c2nccn2C)nc2ccc(C)cc12` (stereo unspecified), the TGI with LOX IMVI melanoma, in the assay on DU-145 prostate, in the assay on NCI-H460 lung, with HT29 colon, in the assay with NCI-H226 lung and in the assay with SK-MEL-5 melanoma was more than 100 µM in each case. The TGI in the assay on MDA-MB-231 breast, in the assay on SF-539 CNS, with A549 NSCLC, in the assay with OVCAR-8 ovarian, with TK-10 renal and in the assay with T-47D breast was more than 100 µM each time. Further, the TGI with HCC-2998 colon, in the assay on HL-60(TB) leukemia and with 786-0 renal was more than 100 µM throughout.

As for `CC1(C)N(OC2CCCCO2)C(c2ccccc2)C(c2ccccc2)=[N+]1[O-]` (stereo unspecified), the TGI in the assay with CCRF-CEM leukemia, in the assay with LOX IMVI melanoma, in the assay with NCI-H460 lung, in the assay with HT29 colon, in the assay on NCI-H226 lung and in the assay on MOLT-4 leukemia was more than 100 µM throughout. In addition, the TGI in the assay with SK-MEL-5 melanoma, in the assay with MDA-MB-231 breast, with SF-539 CNS, in the assay on A549 NSCLC, in the assay on OVCAR-8 ovarian and in the assay with K-562 leukemia was more than 100 µM throughout. In addition, the TGI in the assay on TK-10 renal, with SR leukemia, in the assay on HCC-2998 colon, with HL-60(TB) leukemia, in the assay with 786-0 renal and in the assay on HS 578T breast was more than 100 µM throughout.

For the molecule `CC(=O)c1ccc(N2CCN(c3c(O)c4c(c(O)c3Cl)C(=O)C=CC4=O)CC2)cc1`, the TGI came to 2.07 µM with CCRF-CEM leukemia; 31.2 µM in the assay on DU-145 prostate; 41 µM with NCI-H460 lung; 4.57 µM in the assay on MOLT-4 leukemia; 20.3 µM in the assay with SK-MEL-5 melanoma; 5.5 µM in the assay on MDA-MB-231 breast. Further, the TGI with SF-539 CNS worked out at 30.2 µM; with A549 NSCLC, 34.8 µM; in the assay on OVCAR-8 ovarian, 23 µM; with K-562 leukemia it was 7.1 µM; in the assay with T-47D breast, 10.4 µM; with SR leukemia, 8.33 µM. For the same molecule, the TGI stood at 37.4 µM with HCC-2998 colon, 0.871 µM in the assay on HL-60(TB) leukemia and 27.2 µM in the assay on 786-0 renal.

Turning to `SC[C@@H]1COC[C@H](CS)S1`, the TGI in the assay with CCRF-CEM leukemia, with LOX IMVI melanoma, in the assay on DU-145 prostate, with NCI-H460 lung, in the assay on HT29 colon and in the assay on MOLT-4 leukemia was more than 100 µM each time. Besides, the TGI in the assay with SK-MEL-5 melanoma, in the assay on MDA-MB-231 breast, in the assay with SF-539 CNS, in the assay with A549 NSCLC, in the assay with OVCAR-8 ovarian and in the assay with K-562 leukemia was more than 100 µM each time. In addition, the TGI in the assay on TK-10 renal, with T-47D breast, in the assay with SR leukemia, in the assay on HCC-2998 colon, in the assay with HL-60(TB) leukemia and in the assay with 786-0 renal was more than 100 µM in each case.

For `COC(=O)c1ccccc1/C=C1\Cc2cc3c(cc2C1=O)CCC3`, the TGI in the assay with LOX IMVI melanoma, with DU-145 prostate, with NCI-H460 lung, with HT29 colon, with NCI-H226 lung and in the assay on MOLT-4 leukemia was more than 100 µM throughout. Further, the TGI in the assay on SK-MEL-5 melanoma, in the assay on MDA-MB-231 breast, in the assay with SF-539 CNS, in the assay on A549 NSCLC, in the assay on OVCAR-8 ovarian and in the assay on TK-10 renal was more than 100 µM each time. The TGI in the assay on T-47D breast, in the assay with SR leukemia, in the assay on HCC-2998 colon, in the assay on HL-60(TB) leukemia and in the assay on 786-0 renal was more than 100 µM each time.

Turning to `COC(=O)C1=C(C(=O)OC)SC(=C2c3ccsc3-c3sccc32)S1`, the TGI with CCRF-CEM leukemia, in the assay on LOX IMVI melanoma, in the assay with DU-145 prostate, with NCI-H460 lung, in the assay on HT29 colon and in the assay with NCI-H226 lung was more than 100 µM in each case. For the same molecule, the TGI in the assay with MOLT-4 leukemia, in the assay with SK-MEL-5 melanoma, with MDA-MB-231 breast, in the assay with SF-539 CNS, with A549 NSCLC and with OVCAR-8 ovarian was more than 100 µM each time. The TGI in the assay with K-562 leukemia was more than 100 µM; with TK-10 renal, 57.8 µM; in the assay with SR leukemia, more than 100 µM; in the assay with HCC-2998 colon it was more than 100 µM; with HL-60(TB) leukemia it was 58.7 µM; in the assay on 786-0 renal, 56.8 µM. In the assay on HS 578T breast, this molecule showed a TGI of 52 µM.

Source of the values: PubChem BioAssay (NCI).
